From ChEMBL document CHEMBL5678818, “Discovery of potent SOS1 inhibitors that block RAS activation via disruption of the RAS-SOS1 interaction” (Proc Natl Acad Sci U S A, 2019) come the findings set out here.

The target in assay [1] is Activin receptor type-2B (Homo sapiens) (UniProt Q13705). Description: Inhibition of ACVR2B (unknown origin) assessed as residual activity at 100 nM by KINOMEscan analysis relative to control.
The target of assay [2] is T1, Ephrin type-B receptor 1 (Homo sapiens) (UniProt P54762).
T1 sequence (whole entry): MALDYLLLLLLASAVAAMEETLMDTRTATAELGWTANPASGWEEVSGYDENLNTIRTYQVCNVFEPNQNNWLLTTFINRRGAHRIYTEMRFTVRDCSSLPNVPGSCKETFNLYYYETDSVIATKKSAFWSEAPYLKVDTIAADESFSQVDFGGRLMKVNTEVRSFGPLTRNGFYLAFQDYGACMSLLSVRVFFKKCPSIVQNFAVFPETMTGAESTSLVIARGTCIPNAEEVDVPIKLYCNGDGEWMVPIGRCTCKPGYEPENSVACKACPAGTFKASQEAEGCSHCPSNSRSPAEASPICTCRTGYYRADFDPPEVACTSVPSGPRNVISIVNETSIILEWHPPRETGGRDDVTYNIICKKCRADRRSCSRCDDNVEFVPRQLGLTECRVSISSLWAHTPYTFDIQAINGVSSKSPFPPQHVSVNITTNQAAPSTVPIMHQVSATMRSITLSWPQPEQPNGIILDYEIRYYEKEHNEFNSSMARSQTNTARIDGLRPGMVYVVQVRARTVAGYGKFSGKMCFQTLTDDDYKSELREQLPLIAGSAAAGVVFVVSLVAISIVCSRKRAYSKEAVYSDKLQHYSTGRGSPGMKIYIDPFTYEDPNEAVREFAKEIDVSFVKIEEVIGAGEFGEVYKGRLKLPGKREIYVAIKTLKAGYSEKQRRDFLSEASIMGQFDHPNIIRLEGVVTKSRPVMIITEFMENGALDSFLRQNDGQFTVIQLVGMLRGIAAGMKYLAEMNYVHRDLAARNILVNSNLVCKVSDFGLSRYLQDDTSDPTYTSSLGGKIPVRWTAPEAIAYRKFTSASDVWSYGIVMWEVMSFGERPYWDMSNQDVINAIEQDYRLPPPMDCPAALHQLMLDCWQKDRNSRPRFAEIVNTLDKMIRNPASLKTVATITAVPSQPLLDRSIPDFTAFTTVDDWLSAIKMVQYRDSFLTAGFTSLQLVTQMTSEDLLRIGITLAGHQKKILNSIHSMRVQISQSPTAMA
Description: Inhibition of EPHB1 (unknown origin) assessed as residual activity at 100 nM by KINOMEscan analysis relative to control.

Assay [3] concerns the target Mitogen-activated protein kinase 3 (Homo sapiens) (UniProt P27361). The assay is described as follows: Inhibition of ERK1 (unknown origin) assessed as residual activity at 100 nM by KINOMEscan analysis relative to control.
Assay [4] deals with Mitogen-activated protein kinase 1 (Homo sapiens) (UniProt P28482). Description: Inhibition of ERK2 (unknown origin) assessed as residual activity at 100 nM by KINOMEscan analysis relative to control.
Mitogen-activated protein kinase 1 (Homo sapiens), sequence (P28482 whole entry): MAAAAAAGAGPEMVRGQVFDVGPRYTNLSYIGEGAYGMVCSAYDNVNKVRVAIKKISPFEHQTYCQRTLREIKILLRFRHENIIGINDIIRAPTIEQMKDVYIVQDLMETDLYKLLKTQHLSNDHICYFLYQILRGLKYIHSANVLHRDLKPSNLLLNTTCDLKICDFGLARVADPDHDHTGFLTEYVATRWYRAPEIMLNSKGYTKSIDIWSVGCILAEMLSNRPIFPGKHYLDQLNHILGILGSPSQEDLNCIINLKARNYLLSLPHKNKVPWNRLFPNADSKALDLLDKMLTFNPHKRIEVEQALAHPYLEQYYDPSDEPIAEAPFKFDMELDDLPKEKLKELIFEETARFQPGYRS
Assay [5] addresses T2, Inhibitor of nuclear factor kappa-B kinase subunit alpha (Homo sapiens) (UniProt O15111).
T2 sequence (whole entry): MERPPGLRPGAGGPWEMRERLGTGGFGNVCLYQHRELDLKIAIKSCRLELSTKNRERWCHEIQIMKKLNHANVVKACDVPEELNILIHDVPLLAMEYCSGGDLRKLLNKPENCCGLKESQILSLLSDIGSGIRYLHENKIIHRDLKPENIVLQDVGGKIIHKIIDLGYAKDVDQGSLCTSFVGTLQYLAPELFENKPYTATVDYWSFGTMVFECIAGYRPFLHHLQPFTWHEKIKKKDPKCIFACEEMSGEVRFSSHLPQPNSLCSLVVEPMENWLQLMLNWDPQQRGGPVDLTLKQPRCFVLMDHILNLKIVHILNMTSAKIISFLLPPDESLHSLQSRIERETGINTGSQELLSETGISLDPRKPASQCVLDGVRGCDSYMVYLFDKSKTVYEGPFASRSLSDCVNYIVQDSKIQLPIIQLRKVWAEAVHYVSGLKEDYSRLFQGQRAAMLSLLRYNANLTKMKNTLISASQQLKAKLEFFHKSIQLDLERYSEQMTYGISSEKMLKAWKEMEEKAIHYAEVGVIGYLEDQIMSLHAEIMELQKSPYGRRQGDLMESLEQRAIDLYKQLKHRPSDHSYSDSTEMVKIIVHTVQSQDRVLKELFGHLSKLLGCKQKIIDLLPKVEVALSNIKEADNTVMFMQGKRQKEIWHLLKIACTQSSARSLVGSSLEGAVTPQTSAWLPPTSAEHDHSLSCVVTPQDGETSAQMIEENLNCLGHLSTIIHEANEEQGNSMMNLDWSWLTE
The assay is described as follows: Inhibition of IKK-alpha (unknown origin) assessed as residual activity at 100 nM by KINOMEscan analysis relative to control.

The target of assay [6] is Mast/stem cell growth factor receptor Kit (Homo sapiens) (UniProt P10721). Description: Inhibition of autoinhibited KIT (unknown origin) assessed as residual activity at 100 nM by KINOMEscan analysis relative to control.
Mast/stem cell growth factor receptor Kit (Homo sapiens), sequence (P10721 whole entry, the tested form may be a part): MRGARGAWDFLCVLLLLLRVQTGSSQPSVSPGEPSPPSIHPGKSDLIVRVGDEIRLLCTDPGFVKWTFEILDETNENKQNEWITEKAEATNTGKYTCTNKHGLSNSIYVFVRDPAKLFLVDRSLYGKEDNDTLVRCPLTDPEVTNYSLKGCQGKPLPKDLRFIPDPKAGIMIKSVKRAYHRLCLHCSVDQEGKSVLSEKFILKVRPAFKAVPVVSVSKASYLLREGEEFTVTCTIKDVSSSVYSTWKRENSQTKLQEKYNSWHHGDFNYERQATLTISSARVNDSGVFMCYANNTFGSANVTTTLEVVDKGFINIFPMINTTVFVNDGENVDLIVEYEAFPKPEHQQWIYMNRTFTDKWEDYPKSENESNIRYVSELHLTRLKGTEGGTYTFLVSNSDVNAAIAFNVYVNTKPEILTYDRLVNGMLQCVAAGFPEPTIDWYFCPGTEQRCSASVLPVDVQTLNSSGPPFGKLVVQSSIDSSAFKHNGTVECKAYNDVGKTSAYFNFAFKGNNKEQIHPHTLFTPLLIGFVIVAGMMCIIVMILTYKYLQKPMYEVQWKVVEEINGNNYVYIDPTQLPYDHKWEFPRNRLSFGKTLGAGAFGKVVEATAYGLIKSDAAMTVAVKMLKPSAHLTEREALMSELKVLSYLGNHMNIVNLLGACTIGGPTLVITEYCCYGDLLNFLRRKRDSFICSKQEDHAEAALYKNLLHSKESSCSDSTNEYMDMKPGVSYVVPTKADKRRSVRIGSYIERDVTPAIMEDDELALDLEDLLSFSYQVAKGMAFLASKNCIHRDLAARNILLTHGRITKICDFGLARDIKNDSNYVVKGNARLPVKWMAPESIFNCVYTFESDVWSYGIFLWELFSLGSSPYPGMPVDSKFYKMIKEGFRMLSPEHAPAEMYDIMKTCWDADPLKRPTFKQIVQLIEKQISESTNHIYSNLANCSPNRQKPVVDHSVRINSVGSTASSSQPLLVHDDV
Assay [7] concerns the target Ribosomal protein S6 kinase alpha-1 (Homo sapiens) (UniProt Q15418). Description: Inhibition of C-terminal RSK1 kinetic domain 2 (unknown origin) assessed as residual activity at 100 nM by KINOMEscan analysis relative to control.

Activin receptor type-2B (Homo sapiens), sequence (Q13705 whole entry): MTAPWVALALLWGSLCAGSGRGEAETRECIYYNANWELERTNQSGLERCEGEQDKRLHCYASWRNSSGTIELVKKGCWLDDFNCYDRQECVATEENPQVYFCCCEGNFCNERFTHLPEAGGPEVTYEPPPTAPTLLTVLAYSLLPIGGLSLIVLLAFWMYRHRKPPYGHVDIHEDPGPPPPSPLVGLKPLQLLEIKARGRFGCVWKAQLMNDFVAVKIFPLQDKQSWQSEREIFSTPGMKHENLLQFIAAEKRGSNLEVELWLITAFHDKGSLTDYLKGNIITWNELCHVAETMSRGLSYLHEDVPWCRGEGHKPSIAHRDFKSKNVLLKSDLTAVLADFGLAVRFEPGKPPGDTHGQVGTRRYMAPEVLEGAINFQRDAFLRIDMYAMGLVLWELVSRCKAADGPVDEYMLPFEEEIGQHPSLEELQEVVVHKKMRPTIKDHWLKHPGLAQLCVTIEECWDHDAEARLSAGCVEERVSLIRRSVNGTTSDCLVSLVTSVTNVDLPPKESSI
Mitogen-activated protein kinase 3 (Homo sapiens), sequence (P27361 whole entry): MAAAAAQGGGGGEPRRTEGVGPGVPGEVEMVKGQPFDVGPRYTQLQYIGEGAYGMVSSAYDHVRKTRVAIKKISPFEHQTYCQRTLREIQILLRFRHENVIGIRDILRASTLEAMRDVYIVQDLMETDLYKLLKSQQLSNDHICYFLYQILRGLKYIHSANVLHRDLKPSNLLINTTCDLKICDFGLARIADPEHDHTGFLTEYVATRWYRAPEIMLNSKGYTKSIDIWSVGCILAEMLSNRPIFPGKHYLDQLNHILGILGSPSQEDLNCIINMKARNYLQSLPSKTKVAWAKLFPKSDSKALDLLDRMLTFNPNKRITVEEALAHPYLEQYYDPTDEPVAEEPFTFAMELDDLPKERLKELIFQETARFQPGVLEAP
Ribosomal protein S6 kinase alpha-1 (Homo sapiens), sequence (Q15418 whole entry, the tested form may be a part): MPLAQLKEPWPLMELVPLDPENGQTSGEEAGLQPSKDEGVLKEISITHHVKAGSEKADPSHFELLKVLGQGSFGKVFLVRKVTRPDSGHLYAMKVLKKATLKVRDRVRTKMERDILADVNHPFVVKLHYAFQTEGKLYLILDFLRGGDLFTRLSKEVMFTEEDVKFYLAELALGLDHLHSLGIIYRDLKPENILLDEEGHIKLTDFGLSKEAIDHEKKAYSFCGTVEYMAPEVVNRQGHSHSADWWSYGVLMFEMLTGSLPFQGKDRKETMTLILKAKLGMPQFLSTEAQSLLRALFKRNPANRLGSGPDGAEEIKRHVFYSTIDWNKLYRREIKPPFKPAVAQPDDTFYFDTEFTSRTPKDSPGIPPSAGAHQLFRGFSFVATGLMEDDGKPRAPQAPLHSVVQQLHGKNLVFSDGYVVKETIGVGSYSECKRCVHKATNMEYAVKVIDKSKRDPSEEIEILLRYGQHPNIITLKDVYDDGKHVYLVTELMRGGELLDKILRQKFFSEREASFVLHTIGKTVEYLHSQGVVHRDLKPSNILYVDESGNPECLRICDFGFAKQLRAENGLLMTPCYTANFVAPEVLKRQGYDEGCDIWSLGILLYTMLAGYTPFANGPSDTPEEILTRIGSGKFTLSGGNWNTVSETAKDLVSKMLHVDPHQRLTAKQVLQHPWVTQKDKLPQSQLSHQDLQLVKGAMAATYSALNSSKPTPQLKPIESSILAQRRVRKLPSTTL

With `COc1cc2ncnc(N[C@H](C)c3cccc4ccccc34)c2cc1OC`, the Activity in assay [1] was 91%; in assay [2], 83%; in assay [3], 91%; in assay [4], 72%; in assay [5], 79%; in assay [6] it was 91%. The Activity in assay [7] was 86%.
